A short description of data set [1]: Solubility of milvexian forms in organic solvent systems. It is filed as physicochemical. How it is done: While heating of the feed solution is a viable solution for production, it is a more complex set-up and with risk of crashing out dissolved solids in case of cold spots and plant safety. Various solvent systems (See Table 11 below) were investigated with primary focus on solvent systems containing DCM due to its low boiling point and excellent solubilization properties.
Based on the data it was determined that 70/30 w/w % DCM/MeOH and 80/20 w/w % were promising solvent mixtures and more accurate solubility determination was carried out for 80/20 w/w % DCM/MeOH for both FORM A and P1.Acetone solvate at 20° C. with the results shown in Table 12 below.
P1.Acetone was the preferred crystalline form of milvexian for physical stability and manufacturability reasons. Based on the above, 80/20 w/w % DCM/MeOH solvent system was selected for development due to highly increase solubility over the 90/10 w/w % Acetone/Water solvent system.

The conditions of data set [2]: Acetone/Water 90:10 w/w, cited from earlier work.

Molecules are shown by their SMILES. In brackets after ≈: the same amount, converted by molar mass. Read-outs that look alike come from different tables or passages of the source.

Results on 3 compounds are retold here after patent publication US20260224494A1, “MILVEXIAN PHARMACEUTICAL COMPOSITIONS” (BRISTOL-MYERS SQUIBB COMPANY, priority 2023, published 2026).

On to `C[C@@H]1CCC[C@H](n2cnc(-c3cc(Cl)ccc3-n3cc(Cl)nn3)cc2=O)c2cc(ccn2)-c2c(cnn2C(F)F)NC1=O`, for which the solubility in data set [1] (80/20 w/w % DCM/MeOH, 20 °C, organic solvent or mixture, 80/20 w/w % DCM/MeOH, read-out: solubility) amounted to 230 mg/mL (≈ 367 mM).
In the case of `C[C@@H]1CCC[C@H](n2cnc(-c3cc(Cl)ccc3-n3cc(Cl)nn3)cc2=O)c2cc(ccn2)-c2c(cnn2C(F)F)NC1=O` [FORM A], the solubility at 24 hours in data set [1] (70/30 DCM/MeOH, 20 °C, organic solvent or mixture, thermodynamic from solid, 70/30 DCM/MeOH, 20° C., 24 hours, read-out: Solubility in mg/mL solution 24 hours) was 221 mg/mL (≈ 353 mM). Besides, the “Solubility in mg/mL solution 2 weeks” value came to 204 mg/mL (≈ 326 mM) in data set [1] (70/30 DCM/MeOH, 20° C.) and 255 mg/mL (≈ 407 mM) in data set [1] (80/20 DCM/MeOH, 20° C.). Besides, the “Solubility in mg/mL solution 24 hours” value in data set [1] (80/20 DCM/MeOH, 20° C., 24 hours) was 272 mg/mL (≈ 434 mM). The solubility is 255 mg/mL (≈ 407 mM) in data set [1] (80/20 w/w % DCM/MeOH, listed as crystalline Form A of milvexian free form) and more than 220 mg/mL in data set [1] (DCM/MeOH solvent systems of Table 12, 20 °C, organic solvent or mixture, DCM/MeOH solvent systems of Table 12, read-out: solubilities achievable).
On to `C[C@@H]1CCC[C@H](n2cnc(-c3cc(Cl)ccc3-n3cc(Cl)nn3)cc2=O)c2cc(ccn2)-c2c(cnn2C(F)F)NC1=O` [Milvexian, (5R,9S)-9-(4-(5-chloro-2-(4-chloro-1H-1,2,3-triazol-1-yl)phenyl)-6-oxopyrimidin-1(6H)-yl)-21-(difluoromethvl)-5-methyl-21H-3-aza-1(4,2)-pyridina-2(5,4)-pyrazolacyclononaphan-4-one], for which the solubility in data set [2] (20° C.) is 36 mg/mL (≈ 57.5 mM); in data set [2] (50° C.) it was 70 mg/mL (≈ 112 mM); in data set [1] (30/70 DCM/MeOH, 20 °C, organic solvent or mixture, 30/70 DCM/MeOH, temperature 20, read-out: Solubility in mg/mL solution) it was 16 mg/mL (≈ 25.5 mM); in data set [1] (30/70 DCM/MeOH, 40 °C, organic solvent or mixture, 30/70 DCM/MeOH, temperature 40, read-out: Solubility in mg/mL solution), 26 mg/mL (≈ 41.5 mM); in data set [1] (40/60 DCM/MeOH, 20 °C, organic solvent or mixture, 40/60 DCM/MeOH, temperature 20, read-out: Solubility in mg/mL solution), 29 mg/mL (≈ 46.3 mM); in data set [1] (40/60 DCM/MeOH, 40 °C, organic solvent or mixture, 40/60 DCM/MeOH, temperature 40, read-out: Solubility in mg/mL solution), 44 mg/mL (≈ 70.2 mM). Also, the solubility in data set [1] (50/50 DCM/MeOH, 20 °C, organic solvent or mixture, 50/50 DCM/MeOH, temperature 20, read-out: Solubility in mg/mL solution) is 58 mg/mL (≈ 92.6 mM); in data set [1] (50/50 DCM/MeOH, 40 °C, organic solvent or mixture, 50/50 DCM/MeOH, temperature 40, read-out: Solubility in mg/mL solution), 77 mg/mL (≈ 123 mM); in data set [1] (60/40 DCM/MeOH, 20 °C, organic solvent or mixture, 60/40 DCM/MeOH, temperature 20, read-out: Solubility in mg/mL solution) it was 120 mg/mL (≈ 192 mM); in data set [1] (60/40 DCM/MeOH, 40 °C, organic solvent or mixture, 60/40 DCM/MeOH, temperature 40, read-out: Solubility in mg/mL solution) it was more than 200 mg/mL; in data set [1] (70/30 DCM/MeOH, 20 °C, organic solvent or mixture, 70/30 DCM/MeOH, temperature 20, read-out: Solubility in mg/mL solution), more than 200 mg/mL; in data set [1] (70/30 DCM/MeOH, 40 °C, organic solvent or mixture, 70/30 DCM/MeOH, temperature 40, read-out: Solubility in mg/mL solution), more than 200 mg/mL. Also, the solubility in data set [1] (80/20 DCM/MeOH, 20 °C, organic solvent or mixture, 80/20 DCM/MeOH, temperature 20, read-out: Solubility in mg/mL solution) was more than 200 mg/mL; in data set [1] (80/20 DCM/MeOH, 40 °C, organic solvent or mixture, 80/20 DCM/MeOH, temperature 40, read-out: Solubility in mg/mL solution), more than 200 mg/mL; in data set [1] (90/10 DCM/MeOH, 20 °C, organic solvent or mixture, 90/10 DCM/MeOH, temperature 20, read-out: Solubility in mg/mL solution), more than 200 mg/mL; in data set [1] (90/10 DCM/MeOH, 40 °C, organic solvent or mixture, 90/10 DCM/MeOH, temperature 40, read-out: Solubility in mg/mL solution), more than 200 mg/mL; in data set [1] (100% DCM, 20 °C, organic solvent or mixture, 100% DCM, temperature 20, read-out: Solubility in mg/mL solution), 29 mg/mL (≈ 46.3 mM); in data set [1] (100% DCM, 40 °C, organic solvent or mixture, 100% DCM, temperature 40, read-out: Solubility in mg/mL solution) it was 51 mg/mL (≈ 81.4 mM). The solubility in data set [1] (100% MeOH, 20 °C, organic solvent or mixture, 100% MeOH, temperature 20, read-out: Solubility in mg/mL solution) was 4.2 mg/mL (≈ 6.7 mM); in data set [1] (100% MeOH, 40 °C, organic solvent or mixture, 100% MeOH, temperature 40, read-out: Solubility in mg/mL solution) it was 6.6 mg/mL (≈ 10.5 mM); in data set [1] (acetone/water 90/10 w/w %, 20 °C, organic solvent or mixture, acetone/water (90/10 w/w %), room temperature, read-out: solubility), 36 mg/mL (≈ 57.5 mM); in data set [1] (acetone/water 90/10 w/w %, 49 °C, organic solvent or mixture, acetone/water (90/10 w/w %), 49° C., read-out: solubility), 70 mg/mL (≈ 112 mM). Besides, the Solubility description entry is “Sparingly soluble” in data set [1] (30/70 DCM/MeOH, temperature 20); “Sparingly soluble” in data set [1] (30/70 DCM/MeOH, temperature 40); “Sparingly soluble” in data set [1] (40/60 DCM/MeOH, temperature 20); “Soluble” in data set [1] (40/60 DCM/MeOH, temperature 40); “Soluble” in data set [1] (50/50 DCM/MeOH, temperature 20); “Soluble” in data set [1] (50/50 DCM/MeOH, temperature 40). Moreover, the Solubility description result was “Freely Soluble” in data set [1] (60/40 DCM/MeOH, temperature 20); “Freely Soluble” in data set [1] (60/40 DCM/MeOH, temperature 40); “Freely Soluble” in data set [1] (70/30 DCM/MeOH, temperature 20); “Freely Soluble” in data set [1] (70/30 DCM/MeOH, temperature 40); “Freely Soluble” in data set [1] (80/20 DCM/MeOH, temperature 20); “Freely Soluble” in data set [1] (80/20 DCM/MeOH, temperature 40). Moreover, the Solubility description entry in data set [1] (90/10 DCM/MeOH, temperature 20) is recorded as “Freely Soluble”; in data set [1] (90/10 DCM/MeOH, temperature 40), “Freely Soluble”; in data set [1] (100% DCM, temperature 20), “Sparingly soluble”; in data set [1] (100% DCM, temperature 40), “Soluble”; in data set [1] (100% MeOH, temperature 20) it was “Slightly soluble”; in data set [1] (100% MeOH, temperature 40), “Slightly soluble”.
